Source: PMC13107341, “Quinoline/thiazole compounds as selective acetylcholinesterase inhibitors: synthesis and biological assessment” (RSC Medicinal Chemistry, 2026)

Assays:
AChE = AChE (Homo sapiens, UniProt P22303); assay: Anticholinesterase enzyme activity, modified Ellman method (AChE); assay type: biochemical
Experimental: Anticholinesterase enzyme activity studies were conducted to evaluate the inhibitory potential of the synthesized compounds (Table 2).
(§1) The anticholinesterase enzyme activities of the compounds were investigated using the modified Ellman method. The details of this method have been presented in detail in our previous studies.[25–27]

BChE = BChE (Homo sapiens, UniProt P06276); assay: Anticholinesterase enzyme activity, modified Ellman method (BChE); assay type: biochemical
Experimental: Anticholinesterase enzyme activity studies were conducted to evaluate the inhibitory potential of the synthesized compounds (Table 2). Upon analysis of the results, compounds 3h and 3i stood out due to their notable IC50 values.
as §1

MTT cytotoxicity assay = details: mouse
Experimental: Both the activity of a compound and its lack of cytotoxicity are criteria that determine whether it can be a potential drug candidate. To this end, the cytotoxic potential of the compounds was investigated on healthy fibroblast cells.
To spectroscopically determine the effects of the synthesized compounds on cell viability, MTT analysis was performed. This method is based on the fact that metabolically active living cells reduce the colorless MTT (3-(4,5-dimethylthiazol-2-yl)-2,5-diphenyltetrazolium) salt, converting it into purple formazan crystals. In the analysis, healthy NIH3T3 cell lines were seeded into 96-well plates at a cell density of […] and incubated with the compounds for 24 hours.[28–33]

Chain of BChE (P06276 29-602, species assumed): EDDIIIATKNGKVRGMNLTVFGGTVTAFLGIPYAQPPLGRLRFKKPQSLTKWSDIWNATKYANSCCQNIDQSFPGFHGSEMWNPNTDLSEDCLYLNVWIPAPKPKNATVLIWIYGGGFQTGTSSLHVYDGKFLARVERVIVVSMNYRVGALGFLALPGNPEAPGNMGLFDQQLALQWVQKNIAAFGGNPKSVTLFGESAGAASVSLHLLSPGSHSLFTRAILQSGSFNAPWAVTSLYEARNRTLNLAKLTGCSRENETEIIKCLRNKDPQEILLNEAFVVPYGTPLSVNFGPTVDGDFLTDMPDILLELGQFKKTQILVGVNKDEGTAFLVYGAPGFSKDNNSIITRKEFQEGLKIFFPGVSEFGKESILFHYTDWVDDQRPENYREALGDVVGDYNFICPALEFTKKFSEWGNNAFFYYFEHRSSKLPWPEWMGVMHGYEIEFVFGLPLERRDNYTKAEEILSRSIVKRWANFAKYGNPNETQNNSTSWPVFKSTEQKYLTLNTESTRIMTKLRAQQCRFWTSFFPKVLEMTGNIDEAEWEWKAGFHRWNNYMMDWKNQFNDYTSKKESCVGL
Chain of AChE (P22303 32-614): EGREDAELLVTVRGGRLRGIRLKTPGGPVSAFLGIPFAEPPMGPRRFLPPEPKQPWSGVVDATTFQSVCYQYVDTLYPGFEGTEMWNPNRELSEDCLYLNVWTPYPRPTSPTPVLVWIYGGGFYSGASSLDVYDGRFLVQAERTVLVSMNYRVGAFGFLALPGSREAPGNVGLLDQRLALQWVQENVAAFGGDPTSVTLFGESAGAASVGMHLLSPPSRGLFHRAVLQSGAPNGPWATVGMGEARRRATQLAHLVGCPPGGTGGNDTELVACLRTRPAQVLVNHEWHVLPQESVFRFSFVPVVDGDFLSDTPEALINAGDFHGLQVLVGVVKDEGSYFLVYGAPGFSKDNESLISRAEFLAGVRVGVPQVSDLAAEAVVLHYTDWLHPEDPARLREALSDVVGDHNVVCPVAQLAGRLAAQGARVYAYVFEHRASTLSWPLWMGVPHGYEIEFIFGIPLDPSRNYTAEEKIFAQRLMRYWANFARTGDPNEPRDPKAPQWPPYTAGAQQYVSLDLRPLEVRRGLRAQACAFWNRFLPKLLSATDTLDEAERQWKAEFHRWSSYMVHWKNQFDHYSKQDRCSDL

Compound | IC50 (AChE) [µM] | IC50 (BChE) [µM] | IC50 at 24 h (MTT cytotoxicity assay) [µM]
CCn1c(-c2ccc([N+](=O)[O-])cc2)csc1=NN=Cc1ccnc2ccccc12 [3d, 3-Ethyl-4-(4-nitrophenyl)-2-((quinolin-4-ylmethylene)hydrazineylidene)-2,3-dihydrothiazole] | > 10 | > 10 | –
CCn1c(-c2ccc(O)c(O)c2)csc1=NN=Cc1ccnc2ccccc12 [3i, 4-(3-Ethyl-2-((quinolin-4-ylmethylene)hydrazineylidene)-2,3-dihydrothiazol-4-yl)benzene-1,2-diol] | 0.027 ± 0.002 | > 10 | 19.8 ± 0.627
CCn1c(-c2ccc(Cl)cc2)csc1=NN=Cc1ccnc2ccccc12 [3f, 4-(4-Chlorophenyl)-3-ethyl-2-((quinolin-4-ylmethylene)hydrazineylidene)-2,3-dihydrothiazole] | 4.75 ± 0.098 | > 10 | –
CCn1c(-c2ccc(Cl)c(Cl)c2)csc1=NN=Cc1ccnc2ccccc12 [3h, 4-(3,4-Dichlorophenyl)-3-ethyl-2-((quinolin-4-ylmethylene)hydrazineylidene)-2,3-dihydrothiazole] | 0.107 ± 0.07 | > 10 | 36.1 ± 0.968
CCn1c(-c2ccccc2)csc1=NN=Cc1ccnc2ccccc12 [3a, 3-Ethyl-4-phenyl-2-((quinolin-4-ylmethylene)hydrazineylidene)-2,3-dihydrothiazole] | > 10 | > 10 | –
CCn1c(-c2ccc(C)cc2)csc1=NN=Cc1ccnc2ccccc12 [3b, 3-Ethyl-2-((quinolin-4-ylmethylene)hydrazineylidene)-4-(p-tolyl)-2,3-dihydrothiazole] | > 10 | > 10 | –
CCn1c(-c2ccc(OC)cc2)csc1=NN=Cc1ccnc2ccccc12 [3c, 3-Ethyl-4-(4-methoxyphenyl)-2-((quinolin-4-ylmethylene)hydrazineylidene)-2,3-dihydrothiazole] | 3.68 ± 0.109 | > 10 | –
COc1cccc2c1C(=O)c1c(O)c3c(c(O)c1C2=O)C[C@@](O)(C(=O)CO)C[C@@H]3O[C@H]1C[C@H](N)[C@H](O)[C@H](C)O1 [Doxorubicin, reference compound] | – | – | > 1000
CCn1c(-c2ccc(C#N)cc2)csc1=NN=Cc1ccnc2ccccc12 [3g, 4-(3-Ethyl-2-((quinolin-4-ylmethylene)hydrazineylidene)-2,3-dihydrothiazol-4-yl)benzonitrile] | 9.96 ± 0.208 | > 10 | –
CCn1c(-c2ccc(F)cc2)csc1=NN=Cc1ccnc2ccccc12 [3e, 3-Ethyl-4-(4-fluorophenyl)-2-((quinolin-4-ylmethylene)hydrazineylidene)-2,3-dihydrothiazole] | 1.87 ± 0.678 | > 10 | –
